Activity calls are given as the source filed them. The calls are words filed in the database; no cut-off is given here.
Tests used:
[1] = system: NCI-H446; assay: Induction of apoptosis in human NCI-H446 cells at 8 uM incubated for 48 hrs by Annexin V-FITC/PI staining based flow cytometry relative to control; assay type: functional
[2] = MRT (0 to infinity) in ICR mouse at 10 mg/kg,po measured upto 24 hrs by LC-MS/MS analysis; assay type: ADME, organism-based; conditions: in vivo
[3] = system: NCI-H446; assay: Inhibition of colony formation in human NCI-H446 cells at 1 uM incubated for 24 hrs by crystal violet staining based analysis relative to control; assay type: functional
[4] = Toxicity in Kunming mouse assessed as change in serum creatinine level at 100 mg/kg,po administration for 2 weeks; assay type: organism-based; conditions: in vivo, 336 h
[5] = system: PC-9; assay: Antiproliferative activity against human PC-9 cells assessed as inhibition of cell growth incubated for 96 hrs by MTT based ELISA; assay type: functional; conditions: PC-9, 96 h
[6] = Toxicity in Kunming mouse assessed as lethal dose at po administration for 2 weeks; assay type: organism-based; conditions: in vivo
[7] = Toxicity in Kunming mouse assessed as morphological change in heart at 100 mg/kg,po administration for 2 weeks; assay type: organism-based; conditions: in vivo, 336 h
[8] = Antiproliferative activity against human BEAS-2B cells assessed as inhibition of cell growth incubated for 96 hrs by MTT based ELISA; assay type: toxicity
[9] = system: MDA-MB-231; assay: Antiproliferative activity against human MDA-MB-231 cells assessed as inhibition of cell growth incubated for 96 hrs by MTT based ELISA; assay type: functional; conditions: MDA-MB-231, 96 h
[10] = AUC (0 to t) in ICR mouse at 10 mg/kg,po measured upto 24 hrs by LC-MS/MS analysis; assay type: ADME, organism-based; conditions: in vivo
[11] = Toxicity in Kunming mouse assessed as change in serum AST level at 100 mg/kg,po administration for 2 weeks; assay type: organism-based; conditions: in vivo, 336 h
[12] = system: MCF7; assay: Antiproliferative activity against human MCF7 cells assessed as inhibition of cell growth incubated for 96 hrs by MTT based ELISA; assay type: functional; conditions: MCF7, 96 h
[13] = Half life in ICR mouse at 10 mg/kg,po measured upto 24 hrs by LC-MS/MS analysis; assay type: ADME, organism-based; conditions: in vivo
[14] = target: T1, DNA topoisomerase 1 (Homo sapiens) (UniProt P11387); assay: Inhibition of Topoisomerase I (unknown origin) using pBR322 DNA as substrate at 10 uM incubated for 15 mins by EtBr staining based agarose gel electrophoresis method
T1 sequence (whole entry): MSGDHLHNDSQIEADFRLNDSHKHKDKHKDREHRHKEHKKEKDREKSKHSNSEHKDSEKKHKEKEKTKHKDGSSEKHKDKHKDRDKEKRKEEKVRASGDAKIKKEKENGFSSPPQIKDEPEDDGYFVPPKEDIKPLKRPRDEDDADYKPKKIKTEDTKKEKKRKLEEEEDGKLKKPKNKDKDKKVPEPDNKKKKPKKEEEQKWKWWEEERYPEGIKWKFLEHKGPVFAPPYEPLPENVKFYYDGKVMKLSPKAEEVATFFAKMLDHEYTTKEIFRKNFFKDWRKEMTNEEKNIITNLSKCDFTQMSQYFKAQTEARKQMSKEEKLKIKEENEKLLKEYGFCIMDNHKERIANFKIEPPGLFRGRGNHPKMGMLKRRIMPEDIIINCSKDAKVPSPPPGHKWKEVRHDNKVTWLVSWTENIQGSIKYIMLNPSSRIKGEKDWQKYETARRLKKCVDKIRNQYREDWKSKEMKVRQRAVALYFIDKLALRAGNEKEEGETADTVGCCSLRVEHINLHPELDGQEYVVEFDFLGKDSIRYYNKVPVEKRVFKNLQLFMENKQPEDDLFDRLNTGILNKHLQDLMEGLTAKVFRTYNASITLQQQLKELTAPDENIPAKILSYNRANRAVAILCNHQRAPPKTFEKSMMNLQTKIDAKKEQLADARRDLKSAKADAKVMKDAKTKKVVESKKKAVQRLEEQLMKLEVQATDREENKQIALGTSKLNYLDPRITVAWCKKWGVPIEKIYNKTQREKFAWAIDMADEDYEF

[15] = target: DNA topoisomerase 2-alpha (Homo sapiens) (UniProt P11388); assay: Inhibition of Topoisomerase 2 (unknown origin) using pBR322 DNA as substrate at 0.5 uM incubated for 15 mins by EtBr staining based agarose gel electrophoresis method
[16] = Tmax in ICR mouse at 10 mg/kg,po measured upto 24 hrs by LC-MS/MS analysis; assay type: ADME, organism-based; conditions: in vivo
[17] = Toxicity in Kunming mouse assessed as morphological change in lung at 100 mg/kg,po administration for 2 weeks; assay type: organism-based; conditions: in vivo, 336 h
[18] = system: PC-3; assay: Antiproliferative activity against human PC-3 cells assessed as inhibition of cell growth incubated for 96 hrs by MTT based ELISA; assay type: functional; conditions: PC-3, 96 h
[19] = Toxicity in Kunming mouse assessed as morphological change in liver at 100 mg/kg,po administration for 2 weeks; assay type: organism-based; conditions: in vivo, 336 h
[20] = Toxicity in Kunming mouse assessed as change in organ coefficient of kidney at 100 mg/kg,po administration for 2 weeks; assay type: organism-based; conditions: in vivo, 336 h
[21] = Toxicity in Kunming mouse assessed as change in body weight at 100 mg/kg,po administration for 2 weeks; assay type: organism-based; conditions: in vivo, 336 h
[22] = target: T1, DNA topoisomerase 1 (Homo sapiens); assay: Inhibition of Topoisomerase I (unknown origin) using pBR322 DNA as substrate at 50 uM incubated for 15 mins by EtBr staining based agarose gel electrophoresis method
[23] = system: NCI-H2228; assay: Antiproliferative activity against human NCI-H2228 cells assessed as inhibition of cell growth incubated for 96 hrs by MTT based ELISA; assay type: functional; conditions: NCI-H2228, 96 h
[24] = MRT (0 to t) in ICR mouse at 10 mg/kg,po measured upto 24 hrs by LC-MS/MS analysis; assay type: ADME, organism-based; conditions: in vivo
[25] = Cmax in ICR mouse at 10 mg/kg,po measured upto 24 hrs by LC-MS/MS analysis; assay type: ADME, organism-based; conditions: in vivo
[26] = target: DNA topoisomerase 2-alpha (Homo sapiens) (UniProt P11388); assay: Inhibition of Topoisomerase 2 (unknown origin) using pBR322 DNA as substrate at 50 uM incubated for 15 mins by EtBr staining based agarose gel electrophoresis method
[27] = system: NCI-H446; assay: Antiproliferative activity against human NCI-H446 cells assessed as inhibition of cell growth incubated for 96 hrs by MTT based ELISA; assay type: functional; conditions: NCI-H446, 96 h
[28] = Toxicity in Kunming mouse assessed as change in organ coefficient of lung at 100 mg/kg,po administration for 2 weeks; assay type: organism-based; conditions: in vivo, 336 h
[29] = system: NCI-H446; assay: Induction of DNA damage in human NCI-H446 cells assessed as increase in DNA fragments at 8 uM incubated for 48 hrs by comet assay; assay type: functional, cell-based
[30] = system: A549; assay: Antiproliferative activity against human A549 cells assessed as inhibition of cell growth incubated for 96 hrs by MTT based ELISA; assay type: functional; conditions: A549, 96 h
[31] = Toxicity in Kunming mouse assessed as change in organ coefficient of liver at 100 mg/kg,po administration for 2 weeks; assay type: organism-based; conditions: in vivo, 336 h
[32] = system: NCI-H1650; assay: Antiproliferative activity against human NCI-H1650 cells assessed as inhibition of cell growth incubated for 96 hrs by MTT based ELISA; assay type: functional; conditions: NCI-H1650, 96 h

DNA topoisomerase 2-alpha (Homo sapiens), sequence (P11388 whole entry): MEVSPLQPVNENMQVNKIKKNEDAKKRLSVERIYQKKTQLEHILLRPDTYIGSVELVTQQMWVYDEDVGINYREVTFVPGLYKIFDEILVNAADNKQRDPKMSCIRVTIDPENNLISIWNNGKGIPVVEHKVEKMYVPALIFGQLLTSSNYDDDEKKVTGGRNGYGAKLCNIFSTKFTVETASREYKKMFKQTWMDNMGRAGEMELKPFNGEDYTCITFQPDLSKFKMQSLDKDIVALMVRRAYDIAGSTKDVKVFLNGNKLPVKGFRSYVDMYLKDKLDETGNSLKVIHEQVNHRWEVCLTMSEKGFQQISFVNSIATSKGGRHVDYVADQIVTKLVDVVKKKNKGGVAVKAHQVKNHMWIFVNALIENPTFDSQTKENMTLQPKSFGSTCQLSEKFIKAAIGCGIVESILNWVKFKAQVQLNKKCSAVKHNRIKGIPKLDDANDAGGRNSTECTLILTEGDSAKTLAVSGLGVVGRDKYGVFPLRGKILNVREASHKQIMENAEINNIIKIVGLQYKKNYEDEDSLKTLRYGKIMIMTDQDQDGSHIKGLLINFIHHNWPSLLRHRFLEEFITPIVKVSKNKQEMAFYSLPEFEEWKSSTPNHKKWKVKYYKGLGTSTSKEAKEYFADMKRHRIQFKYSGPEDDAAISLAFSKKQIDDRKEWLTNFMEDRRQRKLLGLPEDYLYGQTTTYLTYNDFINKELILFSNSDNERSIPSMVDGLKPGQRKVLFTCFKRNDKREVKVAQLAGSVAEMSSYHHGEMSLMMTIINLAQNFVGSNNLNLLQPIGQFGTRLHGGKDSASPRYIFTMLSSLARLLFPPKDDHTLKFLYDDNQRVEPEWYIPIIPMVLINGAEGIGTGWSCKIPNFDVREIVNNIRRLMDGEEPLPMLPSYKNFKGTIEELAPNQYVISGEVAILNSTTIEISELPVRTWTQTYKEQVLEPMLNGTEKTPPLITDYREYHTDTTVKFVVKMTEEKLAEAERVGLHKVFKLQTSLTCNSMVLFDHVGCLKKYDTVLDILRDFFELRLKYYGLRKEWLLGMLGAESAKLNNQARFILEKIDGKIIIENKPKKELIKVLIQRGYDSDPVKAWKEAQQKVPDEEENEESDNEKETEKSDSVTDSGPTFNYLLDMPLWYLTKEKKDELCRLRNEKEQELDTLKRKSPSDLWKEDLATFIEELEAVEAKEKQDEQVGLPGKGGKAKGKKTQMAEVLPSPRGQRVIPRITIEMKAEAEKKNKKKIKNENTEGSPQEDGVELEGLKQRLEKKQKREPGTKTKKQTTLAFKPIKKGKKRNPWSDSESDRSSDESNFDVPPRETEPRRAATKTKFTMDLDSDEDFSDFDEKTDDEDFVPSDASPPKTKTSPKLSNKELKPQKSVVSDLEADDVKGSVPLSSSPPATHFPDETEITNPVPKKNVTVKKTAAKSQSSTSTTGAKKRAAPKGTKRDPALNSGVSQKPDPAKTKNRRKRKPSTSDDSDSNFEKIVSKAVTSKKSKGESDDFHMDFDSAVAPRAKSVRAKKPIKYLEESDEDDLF

Row | Compound | Activity [1] [%] | MRT inf [2] [h] | inhibition at 1 µM [3] [%] | Activity [4] | IC50 [5] [nM] | LD50 at 336 h [6] [mg/kg] | Activity [7] | IC50 at 96 h [8] [nM] | IC50 [9] [nM] | AUC(0-t) at 24 h [10] [ng·h/mL] | Activity [11] | IC50 [12] [nM] | half-life [13] [h] | inhibition [14] | inhibition [15] | Tmax [16] [h] | Activity [17] | IC50 [18] [nM] | Activity [19] | Activity [20] | other results
1 | CN(C)CCCn1c2cc3c(cc2c2ncc4ccccc4c21)OCO3 | 95.3 | 5 | > 90 | Non-Toxic | 760 | > 1000 | Non-Toxic | 9570 | 290 | 2040 | Non-Toxic | 350 | 1.66 | Active | Active | 2 | Non-Toxic | 400 | Non-Toxic | Non-Toxic | Activity [21]: Non-Toxic; inhibition [22]: Active; IC50 [23]: 880 nM; MRT last at 24 h [24]: 5 h; Cmax [25]: 284 ng/mL; inhibition [26]: Active; IC50 [27]: 90 nM; Activity [28]: Non-Toxic; Activity [29]: Active; IC50 [30]: 1100 nM; Activity [31]: Non-Toxic; IC50 [32]: 880 nM
2 | COc1ccc2c(c1)c1ncc3ccccc3c1n2CCCC(=O)NO | 77.5 | 1.72 | > 90 | Non-Toxic | 1260 | > 1000 | Non-Toxic | > 10000 | 550 | 244 | Non-Toxic | 670 | 1.15 | Active | Active | 1 | Non-Toxic | 970 | Non-Toxic | Non-Toxic | Activity [21]: Non-Toxic; inhibition [22]: Active; IC50 [23]: 2340 nM; MRT last at 24 h [24]: 1.35 h; Cmax [25]: 109 ng/mL; inhibition [26]: Active; IC50 [27]: 120 nM; Activity [28]: Non-Toxic; Activity [29]: Active; IC50 [30]: 2510 nM; Activity [31]: Non-Toxic; IC50 [32]: 1020 nM

Source: ChEMBL document CHEMBL5576135, “Discovery of Indolo[3,2-c]isoquinoline Derivatives as Novel Top1/2 Dual Inhibitors with Orally Efficacious Antitumor Activity and Low Toxicity” (J Med Chem, 2024)
